Test results reported in PubChem BioAssay AID1845219 (Molecular Pharmacology Branch, DTP, NCI, 2023).
Active and inactive are the calls of the source. How the source made its calls: active means viability on the fitted dose curve at most 10% of control; inactive means the rest.

Tested on: SYO-1 tumor spheroids, viability % test/control
Assay: Anticancer human tumor SYO-1 cell line growth inhibition;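 further: spheroids exposed to agents for 7 days before viability read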;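 on viability, T/C: 100% = DMSO vehicle control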
Details: spheroids with HUVEC and MSC; for IC50: curve of first compound; for viability, T/C: stronger effect = lower value
Summary of the method: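 Complex tumor spheroids combined malignant cells with endothelial cells and mesenchymal stem cells. DNA-damaging drugs and DNA repair inhibitors were tested alone and in combination, at half-log dilutions down from clinical Cmax (top 10 microM if Cmax unknown), 0.25% DMSO final.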

[1] = second compound 30 pM, first compound 0.00949 µM
[2] = second compound 30 pM, first compound 0.03 µM
[3] = second compound 30 pM, first compound 0.0949 µM
[4] = second compound 30 pM, first compound 0.3 µM
[5] = second compound 30 pM, first compound 0.949 µM
[6] = second compound 30 pM, first compound 3 µM
[7] = second compound 94.9 pM, first compound 0.00949 µM
[8] = second compound 94.9 pM, first compound 0.03 µM
[9] = second compound 94.9 pM, first compound 0.0949 µM
[10] = second compound 94.9 pM, first compound 0.3 µM
[11] = second compound 94.9 pM, first compound 0.949 µM
[12] = second compound 94.9 pM, first compound 3 µM
[13] = second compound 0.0003 µM, first compound 0.00949 µM
[14] = second compound 0.0003 µM, first compound 0.03 µM
[15] = second compound 0.0003 µM, first compound 0.0949 µM
[16] = second compound 0.0003 µM, first compound 0.3 µM
[17] = second compound 0.0003 µM, first compound 0.949 µM
[18] = second compound 0.0003 µM, first compound 3 µM
[19] = second compound 0.000949 µM, first compound 0.00949 µM
[20] = second compound 0.000949 µM, first compound 0.03 µM
[21] = second compound 0.000949 µM, first compound 0.0949 µM
[22] = second compound 0.000949 µM, first compound 0.3 µM
[23] = second compound 0.000949 µM, first compound 0.949 µM
[24] = second compound 0.000949 µM, first compound 3 µM
[25] = second compound 0.003 µM, first compound 0.00949 µM
[26] = second compound 0.003 µM, first compound 0.03 µM
[27] = second compound 0.003 µM, first compound 0.0949 µM
[28] = second compound 0.003 µM, first compound 0.3 µM
[29] = second compound 0.003 µM, first compound 0.949 µM
[30] = second compound 0.003 µM, first compound 3 µM

Compound | IC50 (second compound 30 pM) | IC50 (second compound 94.9 pM) | IC50 (second compound 0.0003 µM) | IC50 (second compound 0.000949 µM) | IC50 (second compound 0.003 µM) | viability, T/C [3] | viability, T/C [4] | viability, T/C [5] | viability, T/C [6] | viability, T/C [9] | viability, T/C [10] | viability, T/C [11] | viability, T/C [12] | viability, T/C [15] | viability, T/C [16] | viability, T/C [17] | viability, T/C [18] | viability, T/C [21] | viability, T/C [22] | viability, T/C [23] | further results
CNCc1ccc(-c2cc(-c3nc(-c4ccc(S(=O)(=O)C(C)C)cc4)cnc3N)on2)cc1 + COc1cc2c(cc1O)CCNC21CSC2c3c(OC(C)=O)c(C)c4c(c3C(COC1=O)N1C(O)C3Cc5cc(C)c(OC)c(O)c5C(C21)N3C)OCO4 | 134 nM | 49.1 nM | < 9.49 nM | < 9.49 nM | < 9.49 nM | 70.5% | 2.18% | 0.23% | 0.08% | 4.65% | 1.24% | 0.12% | 0.07% | 2.02% | 0.82% | 0.12% | 0.09% | 1.43% | 0.42% | 0.09% | viability, T/C [1]: 100%; viability, T/C [2]: 94.2%; viability, T/C [7]: 98.6%; viability, T/C [8]: 84%; viability, T/C [13]: 11.1%; viability, T/C [14]: 3.94%; viability, T/C [19]: 1.37%; viability, T/C [20]: 1.54%; viability, T/C [24]: 0.1%; viability, T/C [25]: 0.12%; viability, T/C [26]: 0.12%; viability, T/C [27]: 0.1%; viability, T/C [28]: 0.11%; viability, T/C [29]: 0.19%; viability, T/C [30]: 0.18%
Cc1sc2c(c1C)C(c1ccc(Cl)cc1)=NC(CC(=O)Nc1ccc(O)cc1)c1nnc(C)n1-2 (stereo not given) + COc1cc2c(cc1O)CCNC21CSC2c3c(OC(C)=O)c(C)c4c(c3C(COC1=O)N1C(O)C3Cc5cc(C)c(OC)c(O)c5C(C21)N3C)OCO4 | 52.9 nM | 43.2 nM | < 9.49 nM | < 9.49 nM | < 9.49 nM | 12.1% | 0.72% | 0.4% | 0.28% | 8.96% | 0.68% | 0.34% | 0.28% | 0.68% | 0.58% | 0.32% | 6.38% | 0.51% | 0.24% | 0.06% | viability, T/C [1]: 89%; viability, T/C [2]: 86.8%; viability, T/C [7]: 86.1%; viability, T/C [8]: 69%; viability, T/C [13]: 6.25%; viability, T/C [14]: 2.72%; outcome [19]: active; viability, T/C [20]: 0.65%; viability, T/C [24]: 0.12%; viability, T/C [25]: 0.08%; viability, T/C [26]: 0.1%; viability, T/C [27]: 0.09%; viability, T/C [28]: 0.1%; viability, T/C [29]: 0.09%; viability, T/C [30]: 0.21%
Cn1ncnc1[C@H]1c2n[nH]c(=O)c3cc(F)cc(c23)N[C@@H]1c1ccc(F)cc1 + COc1cc2c(cc1O)CCNC21CSC2c3c(OC(C)=O)c(C)c4c(c3C(COC1=O)N1C(O)C3Cc5cc(C)c(OC)c(O)c5C(C21)N3C)OCO4 | < 9.49 nM | < 9.49 nM | < 9.49 nM | < 9.49 nM | < 9.49 nM | 3.42% | 2.17% | 1.14% | 1.2% | 2.32% | 1.61% | 1.11% | 1.06% | 1.38% | 1.22% | 1.37% | 0.93% | 0.78% | 0.83% | 0.68% | viability, T/C [1]: 40.6%; viability, T/C [2]: 8.47%; viability, T/C [7]: 9.24%; viability, T/C [8]: 3.72%; viability, T/C [13]: 1.89%; viability, T/C [14]: 1.72%; viability, T/C [19]: 0.99%; viability, T/C [20]: 0.87%; viability, T/C [24]: 0.57%; viability, T/C [25]: 0.13%; viability, T/C [26]: 0.14%; viability, T/C [27]: 0.13%; viability, T/C [28]: 0.14%; viability, T/C [29]: 0.52%; viability, T/C [30]: 0.24%
O=C(c1cc(Cc2n[nH]c(=O)c3ccccc23)ccc1F)N1CCN(C(=O)C2CC2)CC1 + COc1cc2c(cc1O)CCNC21CSC2c3c(OC(C)=O)c(C)c4c(c3C(COC1=O)N1C(O)C3Cc5cc(C)c(OC)c(O)c5C(C21)N3C)OCO4 | 1590 nM | 575 nM | < 94.9 nM | < 94.9 nM | < 94.9 nM | 101% | 92.3% | 84.7% | 7.77% | 85.9% | 79.7% | 27.2% | 4.14% | 6.93% | 3.52% | 2.62% | 1.83% | 0.91% | 0.86% | 0.95% | viability, T/C (second compound 30 pM, first compound 9.49 µM): 2.16%; viability, T/C (second compound 30 pM, first compound 30 µM): 1.89%; viability, T/C (second compound 94.9 pM, first compound 9.49 µM): 1.87%; viability, T/C (second compound 94.9 pM, first compound 30 µM): 1.22%; viability, T/C (second compound 0.0003 µM, first compound 9.49 µM): 1.18%; viability, T/C (second compound 0.0003 µM, first compound 30 µM): 1.45%; viability, T/C [24]: 0.68%; viability, T/C (second compound 0.000949 µM, first compound 9.49 µM): 0.61%; viability, T/C (second compound 0.000949 µM, first compound 30 µM): 0.39%; viability, T/C [27]: 3.53%; viability, T/C [28]: 0.25%; viability, T/C [29]: 0.21%; viability, T/C [30]: 0.22%; viability, T/C (second compound 0.003 µM, first compound 9.49 µM): 0.24%; viability, T/C (second compound 0.003 µM, first compound 30 µM): 0.31%
